Columns and labels:
Super ER = assay: Estrogen responsive reporter assay in yeast, modified (super) estrogen receptor with VP16 activating domain; format: cell-based, human; conditions: +CuSO4, no E2
Source text: (§1) The mechanism by which steroid receptors enhance transcription is unclear, however, there is a clear correlation between the ability of the receptor to activate transcription and the presence of an acidic activation region in the protein. […] As illustrated in Fig. 9 this was accomplished for the human estrogen receptor by digestion of the yeast expression vector for estrogen, YEpE2 with Notl, filling in the ends with T4 polymerase and religating in the presence of the filled in Rsal - Sall fragment of the VP16 protein. After the receptor is inserted in the proper orientation it produces a chimeric receptor which includes within its reading frame a VP16 activating domain.
(§2) A comparison of the wild type estrogen receptor and the modified receptor was made in yeast using the estrogen responsive reporters.

human estrogen receptor = assay: Estrogen responsive reporter assay in yeast, wild type estrogen receptor; format: cell-based; conditions: ER
Source text: as §1, §2

YRpEG3 reporter = assay: Activity of the YRpEG3 reporter alone (no receptor); format: cell-based, Saccharomyces cerevisiae
Experimental: The transcriptional activity of the receptor was assayed under similar conditions to Example 15 except that the cells were grown in glucose (Fig. 1B). In the presence of glucose, the transcriptional activity of GAL4 is completely repressed because the GAL4 protein is incapable of binding to its response element. Under these conditions estrogen receptor activation of the GAL4-ERE can be monitored without interference. […] At all concentrations of receptor the activation of transcription was entirely hormone dependent.

[1] = target: T1, chicken progesterone receptor (Gallus gallus, UniProt P07812); assay: β-Galactosidase transcription assay in yeast with expression plasmid and reporter YRpP1; format: cell-based
T1 construct: ubiquitin (N, cleaved yes); expressed in transfected cells
T1 sequence (P07812 1-786): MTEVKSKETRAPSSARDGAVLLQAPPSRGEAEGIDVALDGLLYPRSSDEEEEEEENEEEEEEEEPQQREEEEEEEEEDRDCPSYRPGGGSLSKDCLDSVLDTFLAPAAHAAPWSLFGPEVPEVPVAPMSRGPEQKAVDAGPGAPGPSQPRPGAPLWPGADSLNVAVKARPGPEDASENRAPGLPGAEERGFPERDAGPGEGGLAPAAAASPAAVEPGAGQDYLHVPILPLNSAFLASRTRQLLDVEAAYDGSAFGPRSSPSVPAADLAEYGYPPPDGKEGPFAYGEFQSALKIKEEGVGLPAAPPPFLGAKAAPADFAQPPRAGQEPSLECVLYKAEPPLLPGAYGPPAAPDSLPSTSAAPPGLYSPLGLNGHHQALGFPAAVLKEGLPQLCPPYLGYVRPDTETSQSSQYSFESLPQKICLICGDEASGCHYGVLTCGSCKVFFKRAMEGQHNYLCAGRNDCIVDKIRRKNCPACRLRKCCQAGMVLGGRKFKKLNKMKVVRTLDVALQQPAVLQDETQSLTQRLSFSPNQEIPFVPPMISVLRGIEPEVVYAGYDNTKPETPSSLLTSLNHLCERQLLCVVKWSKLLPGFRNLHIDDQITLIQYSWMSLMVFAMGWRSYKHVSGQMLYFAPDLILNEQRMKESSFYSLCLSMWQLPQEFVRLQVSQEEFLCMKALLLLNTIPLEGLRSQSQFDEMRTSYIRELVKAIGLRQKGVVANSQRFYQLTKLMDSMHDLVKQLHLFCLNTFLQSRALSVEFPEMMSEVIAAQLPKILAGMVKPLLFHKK
Experimental: A reporter YRpP1 containing the progesterone responsive sequence and the β-Galactosidase gene was used to quantitate the transcriptional activity of the chicken progesterone receptor. Yeast containing both the expression and the reporter plasmids was grown overnight in minimal media supplemented with 2% glucose. […] Four sets of tubes were inoculated (a) no additions, (b) +100µM CuSO4, (c) +0.1µM progesterone, and (d) +100µM CuSO4, 0.1µM progesterone. When the cells reached mid-log phase they were harvested by centrifugation. The cells were lysed using glass beads and the cytosol was clarified by centrifugation. Aliquots (1-100µg) of protein were assayed for β-Galactosidase activity according to the method of Miller and expressed as units/mg protein.

GAL4 = assay: Activation of GAL4/ERE binding site chimera reporters by galactose in BJ3505; format: cell-based, Saccharomyces cerevisiae; conditions: grown in galactose
Source text: It is known that the estrogen receptor binds to and activates gene transcription through a 13 bp palindromic sequence (ERE). Placing ERE upstream of the promoter in a CYC-l-β-gal fusion vector and transforming into Saccharomyces cerevisiae results in a reporter which responded to estrogen in a receptor-dependent manner. To monitor the binding of the estrogen receptor to the ERE sequence in vivo, an interference assay was developed. An oligonucleotide containing a GAL4 (17 mer) recognition sequence and an ERE was constructed such that the two sites would overlap by 1 base. In this way only ER or GAL4 but not both molecules could occupy the same site. This sequence was cloned as a single, double, or triple copy distal to the promoter in a yeast iso-l-cytochrome C reporter (PC3).
These plasmids were introduced into yeast and assayed for transcriptional activity in the presence of glucose and galactose. The results are shown in Table I and reveal that galactose induced transcription of the reporter gene, and activity increased dramatically as the number of GAL sites increased. When grown in glucose, transcriptional activity was completely repressed.

`O=S(=O)([O-])[O-].[Cu+2]` [CuSO4] was tested, and the “activity of estrogen responsive reporter” value (Super ER) was 4133 Miller units per milligram of protein, the “activity of estrogen responsive reporter” value (human estrogen receptor; +CuSO4, no E2) was 473 Miller units per milligram of protein and the “direct effects on the activity of the YRpEG3 reporter alone” value (shortened to “direct effects on the activity”) (YRpEG3 reporter) was “no direct effects”. It also gave a β-Galactosidase activity ([1]; +100µM CuSO4, no progesterone) of less than 500 Miller units and an EC50 ([1]; CUP1 promoter driven receptor expression, other data, read-out: concentration sufficient to activate half maximally this transcription unit) of 1000 nM.

In the case of `C[C@]12CC[C@@H]3c4ccc(O)cc4CC[C@H]3[C@@H]1CC[C@@H]2O` [E2, estradiol], the “activity of estrogen responsive reporter” value (human estrogen receptor; +CuSO4+E2) is reported as 4344 Miller units per milligram of protein, the “activity of estrogen responsive reporter” value (human estrogen receptor; +E2) is reported as 5760 Miller units per milligram of protein and the “direct effects on the activity” value (YRpEG3 reporter) is reported as “no direct effects”.

With `O=C[C@H](O)[C@@H](O)[C@@H](O)[C@H](O)CO` [Galactose, galactose] the “TRANSCRIPTIONAL ACTIVITY” value (GAL4; reporter YRpEG1, 1 binding site) was 860, the “TRANSCRIPTIONAL ACTIVITY” value (GAL4; reporter YRpEG2, 2 binding sites) was 2,350 and the “TRANSCRIPTIONAL ACTIVITY” value (GAL4; reporter YRpEG3, 3 binding sites) was 16,500.

`CC(=O)[C@H]1CC[C@H]2[C@@H]3CCC4=CC(=O)CC[C@]4(C)[C@H]3CC[C@]12C` [Prog., progesterone, reference compound] was tested, and the β-Galactosidase activity ([1]; +0.1µM progesterone, no CuSO4) was less than 500 Miller units and the β-Galactosidase activity ([1]; +100µM CuSO4, 0.1µM progesterone) was 50,000 Miller units.

For `COc1ccc2c(c1)CCC(c1ccccc1)=C2c1ccc(OCCN2CCCC2)cc1` [nafoxidine], the “direct effects on the activity” value (YRpEG3 reporter) was “no direct effects”.

— patent EP0752477A2, “Expression vectors that produce steroid receptors, steroid receptor chimera, screening assays for steroid receptors and clinical assays using synthesized receptors and receptor vectors” (BAYLOR COLLEGE OF MEDICINE, priority 1990, dated 1991)
